In article PMC3847553, “Kinetic properties of “dual” orexin receptor antagonists at OX1R and OX2R orexin receptors” (Frontiers in Neuroscience, 2013):
Where two headings read alike, the source gives them in different places.

Assays:
sleep wake cycle = tested on: sleep wake cycle; set-up: method as in Mang et al., 2012; details: ref Mang et al., 2012, cited from earlier work
rat OX1R = target: T1, rat OX1R (Rattus norvegicus, UniProt P56718); assay: FLIPR orexin A-stimulated calcium accumulation, rat OX1R; assay type: cell-based; details: HEK cells
T1 construct: expressed in transfected cells; host or cells: HEK; cells from GNF, San Diego
T1 sequence (P56718 1-416): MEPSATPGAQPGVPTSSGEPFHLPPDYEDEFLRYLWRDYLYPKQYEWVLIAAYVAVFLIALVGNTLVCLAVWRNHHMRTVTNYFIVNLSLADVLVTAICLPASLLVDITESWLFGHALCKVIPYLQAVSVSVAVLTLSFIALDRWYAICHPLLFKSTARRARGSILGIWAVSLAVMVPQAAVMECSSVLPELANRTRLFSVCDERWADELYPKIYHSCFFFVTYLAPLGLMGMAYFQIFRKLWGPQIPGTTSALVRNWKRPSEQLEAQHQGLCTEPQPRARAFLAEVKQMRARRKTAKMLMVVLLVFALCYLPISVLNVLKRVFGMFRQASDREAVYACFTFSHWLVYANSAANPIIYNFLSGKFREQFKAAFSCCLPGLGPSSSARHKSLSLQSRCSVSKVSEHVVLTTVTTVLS
Procedure: Chinese Hamster Ovary (CHO) cells stably transfected with the cDNA encoding the human OX1R (CHO-hOX1) or OX2R (CHO-hOX2) were used (kindly provided by T. Cremer and Dr. S. Geisse, NIBR Basel, Switzerland). For measurements of calcium accumulation using FLIPR® (Fluorescent Imaging Plate Reader) assay, CHO or Human Embryonic Kidney (HEK) cells stably expressing mouse, rat or human OX1R or OX2R (kindly provided by Dr. A. Chen, GNF, San Diego, CA, USA) were used. All cells were cultured in 1:1 Dulbecco's Modified Eagle's Medium (DMEM)/Ham's F12 Nutrients Mixture (F12) supplemented with 10% (v/v) fetal bovine serum (FBS), […] (100 μg/ml), Fungizone (250 μg/ml), and Geneticin (G418, […]). Cells were maintained in a humidified incubator at 37°C in 5% CO2. For crude cell membrane preparations, cells were washed and harvested in 10 mM HEPES (pH 7.5), and centrifuged at 4°C for 5 min at 2500 g. The cell pellet was either stored at −80°C or used directly.
Cells expressing either human, rat or mouse OX1R or OX2R were seeded at 8,000 cells/well in black 384 well clear bottom plates and incubated overnight at 37°C. The following day, medium was discarded and cells loaded with 50 μ l of 1 mM Fluo-4 AM (Invitrogen F14202) in dimethyl sulfoxide in working buffer (Hanks' balanced salt solution, 10 mM HEPES) and incubated for 60 min at 37°C. The loading buffer was removed and cells were washed with 100 μ l working buffer containing […], 0.1% BSA, and 2.5 mM Probenecid (pH 7.4) to remove the excess Fluo-4 AM. […] The assay plate was then transferred to the Molecular Devices-FLIPR384. The baseline calcium signal was recorded for 10 s, then the antagonist of interest was injected (10 μl at 3 times the final concentration) and the calcium signal recorded every second for 1 min, then every 2 s 40 times. Plates were then incubated at room temperature for 30 min, 1, 2, or 4 h.

OX1R = assay: FLIPR calcium assay, OX1R, species not given; assay type: cell-based; details: species not stated
Procedure: (§1) Determination of orexin A-stimulated calcium accumulation was performed over 2 days using FLIPR® (Fluorescent imaging plate reader from Molecular Devices-FLIPR384). Cells expressing either human, rat or mouse OX1R or OX2R were seeded at 8,000 cells/well in black 384 well clear bottom plates and incubated overnight at 37°C. The following day, medium was discarded and cells loaded with 50 μ l of 1 mM Fluo-4 AM (Invitrogen F14202) in dimethyl sulfoxide in working buffer (Hanks' balanced salt solution, 10 mM HEPES) and incubated for 60 min at 37°C. The loading buffer was removed and cells were washed with 100 μ l working buffer containing […], 0.1% BSA, and 2.5 mM Probenecid (pH 7.4) to remove the excess Fluo-4 AM. Working buffer was added and plates were incubated 10–15 min at room temperature. The assay plate was then transferred to the Molecular Devices-FLIPR384. The baseline calcium signal was recorded for 10 s, then the antagonist of interest was injected (10 μl at 3 times the final concentration) and the calcium signal recorded every second for 1 min, then every 2 s 40 times. Plates were then incubated at room temperature for 30 min, 1, 2, or 4 h.

OX2R = assay: FLIPR calcium assay, OX2R, species not given; assay type: cell-based; details: species not stated
Procedure: as §1

REM sleep = tested on: REM sleep; set-up: method as in Bettica et al., 2012b, 2012c; details: 10, 30, or 60 mg; healthy volunteers and insomnia patients; ref Bettica et al., 2012b, 2012c; cited from earlier work

With `CNC(=O)[C@@H](c1ccccc1)N1CCc2cc(OC)c(OC)cc2[C@@H]1CCc1ccc(C(F)(F)F)cc1` [Almorexant] as the compound, how does the effect on sleep (sleep wake cycle; OX1R KO mice) read?
Its effect on sleep is “effective”.

What about the “effect on the sleep wake cycle” value (sleep wake cycle; OX2R KO mice) of the same compound?
The value was “no effect on the sleep wake cycle”.

What about the “effect on the sleep wake cycle” value (sleep wake cycle; double receptor KO mice) of the same compound?
The value was “no effect on the sleep wake cycle”.

And the Ki (rat OX1R; antagonist incubation 30 min)?
Its Ki is 12.6 nM.

And the Ki (rat OX1R; antagonist incubation 1 h)?
Its Ki is 12.6 nM.

And the Ki (rat OX1R; antagonist incubation 2 h)?
Its Ki is 11.2 nM.

What about the Ki (rat OX1R; antagonist incubation 4 h) of the same compound?
Its Ki is 17.4 nM.

What does the source list for `Cc1ccc(-c2ncccn2)c(C(=O)N2C[C@H](COc3ccc(F)cn3)CC[C@H]2C)c1` [Filorexant]?
Ki (rat OX1R; antagonist incubation 30 min): 0.759 nM; Ki (rat OX1R; antagonist incubation 1 h): 0.617 nM; Ki (rat OX1R; antagonist incubation 2 h): 0.501 nM; Ki (rat OX1R; antagonist incubation 4 h): 1.2 nM

For `COc1ccnc(N2CCC3(CCCN(Cc4c[nH]c5ccccc45)C3=O)CC2)n1` [IPSU, 2-((1H-Indol-3-yl)methyl)-9-(4-methoxypyrimidin-2-yl)-2,9-diazaspiro[5.5]undecan-1-one], which Ki (rat OX1R; antagonist incubation 30 min) is on record?
Its Ki is 224 nM.

And the Ki (rat OX1R; antagonist incubation 1 h)?
Its Ki is 240 nM.

And the Ki (rat OX1R; antagonist incubation 2 h)?
The Ki was 275 nM.

And the Ki (rat OX1R; antagonist incubation 4 h)?
The Ki was 562 nM.

What about the “effect of incubation time on potency in calcium assay” value (OX1R) of the same compound?
The value was “constant potency values irrespective of the incubation time”.

What about the “effect of incubation time on potency in calcium assay” value (OX2R) of the same compound?
Its value is “constant potency values irrespective of the incubation time”.

With `Cc1nc(C(=O)N2CCCC[C@H]2CNC(=O)c2cccc3occc23)c(-c2ccc(F)cc2)s1` [SB-649868] as the compound, how does the REM duration (REM sleep) read?
Its REM duration is “increases REM duration”.

What about the “latency to REM” value (REM sleep) of the same compound?
Its value is “decreases latency to REM”.

And the Ki (rat OX1R; antagonist incubation 30 min)?
Its Ki is 0.257 nM.

What about the Ki (rat OX1R; antagonist incubation 1 h) of the same compound?
Its Ki is 0.126 nM.

And the Ki (rat OX1R; antagonist incubation 2 h)?
Its Ki is 0.0676 nM.

And the Ki (rat OX1R; antagonist incubation 4 h)?
The Ki was 0.0724 nM.
